Patent publication US7994209B2, “3-phenoxymethylpyrrolidine compounds” (Theravance, Inc., priority 2009, dated 2011)
Marks after values point to notes of the source that are not given here.

How the values were obtained:
hSERT [1] = molecular target: T1, hSERT (Homo sapiens, UniProt P31645); assay: fluorescence-based serotonin reuptake inhibition assay (Tsuruda et al. 2010; data indicated by an asterisk); type: cell-based; design: expressed in transfected cells; host or cells: HEK-293; conditions: fluorescence-based assay (values with asterisk); for IC50: read-out: SERT pIC50 (converted)
hNET [2] = molecular target: T2, hNET (Homo sapiens, UniProt P23975); assay: fluorescence-based norepinephrine reuptake inhibition assay (Tsuruda et al. 2010; data indicated by an asterisk); type: cell-based; design: expressed in transfected cells; host or cells: HEK-293; conditions: fluorescence-based assay (values with asterisk)
hSERT [3] = molecular target: T1, hSERT; assay: hSERT membrane radioligand binding assay (3H-citalopram), Assay 1; conditions: SERT pKi, hSERT HEK-293 membranes, 1.0 nM 3H-citalopram; values given as lower bounds
hNET [4] = molecular target: T2, hNET; assay: hNET membrane radioligand binding assay (3H-nisoxetine), Assay 1
Protocol: Membrane radioligand binding assays were used to measure inhibition of labeled ligand (^3H-citalopram or ^3H-nisoxetine or ^3H-WIN35428) binding to membranes prepared from cells expressing the respective human recombinant transporter (hSERT or hNET or hDAT) in order to determine the pKi values of test compounds at the transporters.
Recombinant human embryonic kidney (HEK-293) derived cell lines stably transfected with hSERT or hNET, respectively, were grown in DMEM medium supplemented with 10% dialyzed FBS (for hSERT) or FBS (for hNET), 100 μg/mL penicillin, 100 μg/mL streptomycin, 2 mM L-glutamine and 250 μg/mL of the aminoglycoside antibiotic G418, in a 5% CO2 humidified incubator at 37° C. When cultures reached 80% confluence, the cells were washed thoroughly in PBS (without Ca^2+ and Mg^2+) and lifted with 5 mM EDTA in PBS. Cells were pelleted by centrifugation, resuspended in lysis buffer (10 mM Tris-HCl, pH7.5 containing 1 mM EDTA), homogenized, pelleted by centrifugation, then resuspended in 50 mM Tris-HCl, pH 7.5 and 10% sucrose at 4° C. Protein concentration of the membrane suspension was determined using a Bio-Rad Bradford Protein Assay kit. Membranes were snap frozen and stored at −80° C.
Binding assays were performed in a 96-well assay plate in a total volume of 200 μl assay buffer (50 mM Tris-HCl, 120 mM NaCl, 5 mM KCl, pH 7.4) with 0.5, 1, and 3 μg membrane protein, for SERT, NET and DAT, respectively.
Stock solutions (10 mM in DMSO) of test compound were prepared and serial dilutions made using Dilution Buffer (50 mM Tris-HCl, 120 mM NaCl, 5 mM KCl, pH 7.4, 0.1% BSA, 400 μM ascorbic acid).
Following a 60 minute incubation at 22° C. (or a period sufficient to reach equilibrium), the membranes were harvested by rapid filtration over a 96-well UniFilter GF/B plate, pretreated with 0.3% polyethyleneimine, and washed 6 times with 300 μl wash buffer (50 mM Tris-HCl, 0.9% NaCl, pH 7.5 at 4° C.). Plates were dried overnight at room temperature, approximately 45 μl of MicroScint™-20 (Perkin Elmer) added and bound radioactivity quantitated via liquid scintillation spectroscopy. Inhibition curves and saturation isotherms were analyzed using GraphPad Prism Software package (GraphPad Software, Inc., San Diego, Calif.). IC50 values were generated from concentration response curves using the Sigmoidal Dose Response (variable slope) algorithm in Prism GraphPad.

hNET [5] = molecular target: T2, hNET; assay: hNET neurotransmitter uptake assay (3H-NE), Assay 2; type: cell-based; design: expressed in transfected cells; host or cells: HEK-293; conditions: norepinephrine reuptake inhibition, 3H-NE uptake, HEK-293 hNET cells (values without asterisk); read-out: NET pIC50 (converted)
hSERT [6] = molecular target: T1, hSERT; assay: hSERT neurotransmitter uptake assay (3H-5-HT), Assay 2; type: cell-based; design: expressed in transfected cells; host or cells: HEK-293; conditions: serotonin reuptake inhibition, 3H-5-HT uptake, HEK-293 hSERT cells (values without asterisk); read-out: SERT pIC50 (converted)
[7] = norepinephrine reuptake inhibition, read-out: NET pIC50 (converted)

T1 sequence (P31645 whole entry): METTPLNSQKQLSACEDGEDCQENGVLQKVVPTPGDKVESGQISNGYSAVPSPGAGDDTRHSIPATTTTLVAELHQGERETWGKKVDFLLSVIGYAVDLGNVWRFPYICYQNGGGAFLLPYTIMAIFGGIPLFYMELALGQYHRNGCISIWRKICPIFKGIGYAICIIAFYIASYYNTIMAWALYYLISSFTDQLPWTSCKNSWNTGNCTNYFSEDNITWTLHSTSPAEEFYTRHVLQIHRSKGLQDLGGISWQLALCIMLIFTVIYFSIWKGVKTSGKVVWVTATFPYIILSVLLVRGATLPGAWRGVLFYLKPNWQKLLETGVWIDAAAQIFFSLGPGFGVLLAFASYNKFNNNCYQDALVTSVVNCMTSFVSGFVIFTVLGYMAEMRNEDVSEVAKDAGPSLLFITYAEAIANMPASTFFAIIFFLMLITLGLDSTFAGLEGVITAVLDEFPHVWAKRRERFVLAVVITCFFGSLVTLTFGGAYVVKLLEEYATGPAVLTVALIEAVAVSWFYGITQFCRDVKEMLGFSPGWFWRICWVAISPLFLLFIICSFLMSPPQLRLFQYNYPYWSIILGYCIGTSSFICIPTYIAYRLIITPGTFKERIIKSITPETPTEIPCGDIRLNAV
T2 sequence (P23975 whole entry): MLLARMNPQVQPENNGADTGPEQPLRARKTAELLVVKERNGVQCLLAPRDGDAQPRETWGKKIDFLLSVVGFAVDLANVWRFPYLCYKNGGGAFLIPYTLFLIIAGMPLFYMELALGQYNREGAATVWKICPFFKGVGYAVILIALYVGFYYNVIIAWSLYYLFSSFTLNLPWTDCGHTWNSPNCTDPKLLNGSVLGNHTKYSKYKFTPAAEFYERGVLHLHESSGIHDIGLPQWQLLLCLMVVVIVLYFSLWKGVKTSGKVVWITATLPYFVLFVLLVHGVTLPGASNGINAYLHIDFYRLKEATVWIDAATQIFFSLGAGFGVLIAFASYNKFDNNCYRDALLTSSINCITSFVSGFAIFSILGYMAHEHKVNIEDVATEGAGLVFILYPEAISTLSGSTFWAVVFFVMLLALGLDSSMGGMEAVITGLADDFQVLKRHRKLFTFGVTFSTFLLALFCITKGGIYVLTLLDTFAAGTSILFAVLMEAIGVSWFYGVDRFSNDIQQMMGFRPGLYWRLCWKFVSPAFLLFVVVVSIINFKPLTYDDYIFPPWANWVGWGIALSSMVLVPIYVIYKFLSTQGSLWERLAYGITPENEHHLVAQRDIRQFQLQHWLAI

| IC50 (hSERT [1]) | IC50 (hNET [2]; [7]) | Compound | other results |
| --- | --- | --- | --- |
| ≤ 10 nM | ≤ 10 nM | Cc1ccc(OC(C2CCCC2)C2CCNC2)c(Cl)c1 (mixture of isomers) [Example 17, 3-[(2-Chloro-4-methylphenoxy)cyclopentylmethyl]pyrrolidine] | – |
| ≤ 10 nM | ≤ 100 nM | FC(F)(F)c1c(Cl)cccc1OC(C1CCCC1)C1CCNC1 (single isomer, unassigned) [Example 18-2, 3-[(3-Chloro-2-trifluoromethylphenoxy)cyclopentylmethyl]pyrrolidine] | – |
| ≤ 100 nM | ≤ 10 nM | FC(F)(F)c1c(Cl)cccc1OC(C1CCCC1)C1CCNC1 (single isomer, unassigned) [Example 18-3, 3-[(3-Chloro-2-trifluoromethylphenoxy)cyclopentylmethyl]pyrrolidine] | – |
| ≤ 10 nM | ≤ 100 nM | Clc1ccc(OC(C2CCCC2)C2CCNC2)c(Cl)c1 (single isomer, unassigned) [Example 18-4, 3-[Cyclopentyl-(2,4-dichlorophenoxy)methyl]pyrrolidine] | – |
| – | ≤ 10 nM | Clc1ccc(OC(C2CCCC2)C2CCNC2)c(Cl)c1 (single isomer, unassigned) [Example 18-5, 3-[Cyclopentyl-(2,4-dichlorophenoxy)methyl]pyrrolidine] | SERT pIC50 (hSERT [1]): ≧8.0* |
| ≤ 10 nM | ≤ 100 nM | CC[C@@H](Oc1ccc(Cl)cc1)[C@H]1CCNC1 [Example 2-4, (S)-3-[(R)-1-(4-Chlorophenoxy)propyl]pyrrolidine] | – |
| ≤ 10 nM | ≤ 100 nM | CC[C@@H](Oc1ccc(Cl)c(F)c1)[C@H]1CCNC1 [Example 2-6, (S)-3-[(R)-1-(4-Chloro-3-fluorophenoxy)propyl]pyrrolidine] | – |
| ≤ 10 nM | ≤ 100 nM | CC[C@@H](Oc1ccc(Cl)c(Cl)c1)[C@H]1CCNC1 [Example 2-8, (S)-3-[(R)-1-(3,4-Dichlorophenoxy)propyl]pyrrolidine] | – |
| ≤ 100 nM | ≤ 10 nM | CC[C@H](Oc1cc(F)cc(Cl)c1)[C@H]1CCNC1 [Example 2-10, (S)-3-[(S)-1-(3-Chloro-5-fluorophenoxy)propyl]pyrrolidine] | – |
| ≤ 100 nM | ≤ 10 nM | CC[C@@H](Oc1cc(F)cc(Cl)c1)[C@H]1CCNC1 [Example 2-11, (S)-3-[(R)-1-(3-Chloro-5-fluorophenoxy)propyl]pyrrolidine] | – |
| ≤ 10 nM | ≤ 100 nM | CC[C@@H](Oc1ccc(Cl)c(C)c1)[C@H]1CCNC1 [Example 2-14, (S)-3-[(R)-1-(4-Chloro-3-methylphenoxy)propyl]pyrrolidine] | – |
| ≤ 10 nM | ≤ 100 nM | CC[C@H](Oc1cc(C)c(Cl)c(C)c1)[C@H]1CCNC1 [Example 2-15, (S)-3-[(S)-1-(4-Chloro-3,5-dimethylphenoxy)propyl]pyrrolidine] | – |
| ≤ 100 nM | ≤ 100 nM | CC[C@H](Oc1cc(Cl)cc(OC)c1)[C@H]1CCNC1 [Example 2-20, (S)-3-[(S)-1-(3-Chloro-5-methoxyphenoxy)propyl]pyrrolidine] | – |
| ≤ 100 nM | ≤ 100 nM | CC[C@@H](Oc1ccccc1Cl)[C@H]1CCNC1 [Example 2-24, (S)-3-[(R)-1-(2-Chlorophenoxy)propyl]pyrrolidine] | – |
| ≤ 10 nM | ≤ 10 nM | CC[C@@H](Oc1cccc(Cl)c1Cl)[C@H]1CCNC1 [Example 2-31, (S)-3-[(R)-1-(2,3-Dichlorophenoxy)propyl]pyrrolidine] | – |
| ≤ 10 nM | – | CC[C@@H](Oc1ccc(Cl)cc1Cl)[C@H]1CCNC1 [Example 2-34, (S)-3-[(R)-1-(2,4-Dichlorophenoxy)propyl]pyrrolidine] | IC50 (hNET [2]; NET pIC50, norepinephrine reuptake inhibition): ≤ 100 nM |
| ≤ 10 nM | ≤ 10 nM | CC[C@H](Oc1c(F)cc(Cl)cc1Cl)[C@H]1CCNC1 [Example 2-35, (S)-3-[(S)-1-(2,4-Dichloro-6-fluorophenoxy)propyl]pyrrolidine] | – |
| ≤ 10 nM | ≤ 10 nM | CC[C@@H](Oc1c(F)ccc(OC)c1Cl)[C@H]1CCNC1 [Example 2-45, (S)-3-[(R)-1-(2-Chloro-6-fluoro-3-methoxyphenoxy)propyl]pyrrolidine] | – |
| ≤ 10 nM | ≤ 10 nM | CC[C@H](Oc1ccc(C)c(F)c1F)[C@H]1CCNC1 [Example 2-51, (S)-3-[(S)-1-(2,3-Difluoro-4-methylphenoxy)propyl]pyrrolidine] | – |
| ≤ 10 nM | ≤ 10 nM | CC[C@H](Oc1cccc(Cl)c1C)[C@H]1CCNC1 [Example 2-64, (S)-3-[(S)-1-(3-Chloro-2-methylphenoxy)propyl]pyrrolidine] | – |

| IC50 (hSERT [1]) | IC50 (hNET [2]; [7]) | Compound | other results |
| --- | --- | --- | --- |
| ≤ 10 nM | ≤ 10 nM | CC[C@@H](Oc1cccc(Cl)c1C)[C@H]1CCNC1 [Example 2-65, (S)-3-[(R)-1-(3-Chloro-2-methylphenoxy)propyl]pyrrolidine] | – |
| ≤ 10 nM | ≤ 100 nM | CC[C@@H](Oc1cccc(Cl)c1C(F)(F)F)[C@H]1CCNC1 [Example 2-74, (S)-3-[(R)-1-(3-Chloro-2-trifluoromethylphenoxy)propyl]pyrrolidine] | – |
| ≤ 100 nM | ≤ 10 nM | CCC[C@@H](Oc1cc(F)cc(Cl)c1)[C@H]1CCNC1 [Example 4-10, (S)-3-[(R)-1-(3-Chloro-5-fluorophenoxy)butyl]pyrrolidine] | – |
| ≤ 100 nM | ≤ 10 nM | CCC[C@H](Oc1cc(F)cc(Cl)c1)[C@H]1CCNC1 [Example 4-11, (S)-3-[(S)-1-(3-Chloro-5-fluorophenoxy)butyl]pyrrolidine] | – |
| ≤ 10 nM | ≤ 100 nM | CCC[C@@H](Oc1ccc(Cl)c(Cl)c1)[C@@H]1CCNC1 [Example 4-14, (R)-3-[(R)-1-(3,4-Dichlorophenoxy)butyl]pyrrolidine] | – |
| ≤ 10 nM | ≤ 100 nM | CCC[C@@H](Oc1ccc(Cl)c(C)c1)[C@H]1CCNC1 [Example 4-15, (S)-3-[(R)-1-(4-Chloro-3-methylphenoxy)butyl]pyrrolidine] | – |
| ≤ 10 nM | ≤ 10 nM | CCC[C@H](Oc1ccc(Cl)c(C)c1)[C@H]1CCNC1 [Example 4-16, (S)-3-[(S)-1-(4-Chloro-3-methylphenoxy)butyl]pyrrolidine] | – |
| ≤ 10 nM | ≤ 100 nM | CCC[C@@H](Oc1ccc(Cl)c(F)c1)[C@H]1CCNC1 [Example 4-17, (S)-3-[(R)-1-(4-Chloro-3-fluorophenoxy)butyl]pyrrolidine] | – |
| ≤ 10 nM | ≤ 10 nM | CCC[C@@H](Oc1c(Cl)ccc(Cl)c1Cl)[C@H]1CCNC1 [Example 4-26, (S)-3-[(R)-1-(2,3,6-Trichlorophenoxy)butyl]pyrrolidine] | – |
| ≤ 10 nM | ≤ 10 nM | CCC[C@H](Oc1ccc(Cl)c(F)c1Cl)[C@H]1CCNC1 [Example 4-39, (S)-3-[(S)-1-(2,4-Dichloro-3-fluorophenoxy)butyl]pyrrolidine] | – |
| ≤ 10 nM | ≤ 10 nM | CCC[C@H](Oc1c(F)cc(Cl)cc1Cl)[C@H]1CCNC1 [Example 4-40, (S)-3-[(S)-1-(2,4-Dichloro-6-fluorophenoxy)butyl]pyrrolidine] | – |
| ≤ 10 nM | ≤ 10 nM | CCC[C@H](Oc1c(C)cc(Cl)cc1Cl)[C@H]1CCNC1 [Example 4-41, (S)-3-[(S)-1-(2,4-Dichloro-6-methylphenoxy)butyl]pyrrolidine] | – |
| ≤ 10 nM | ≤ 10 nM | CCC[C@@H](Oc1c(F)ccc(OC)c1Cl)[C@H]1CCNC1 [Example 4-42, (S)-3-[(R)-1-(2-Chloro-6-fluoro-3-methoxyphenoxy)butyl]pyrrolidine] | – |
| ≤ 100 nM | ≤ 10 nM | CCC[C@@H](Oc1cccc(F)c1F)[C@H]1CCNC1 [Example 4-44, (S)-3-[(R)-1-(2,3-Difluorophenoxy)butyl]pyrrolidine] | – |
| ≤ 100 nM | ≤ 10 nM | CCC[C@H](Oc1cccc(F)c1F)[C@H]1CCNC1 [Example 4-45, (S)-3-[(S)-1-(2,3-Difluorophenoxy)butyl]pyrrolidine] | – |
| ≤ 100 nM | ≤ 10 nM | CCC[C@@H](Oc1cccc(Cl)c1F)[C@H]1CCNC1 [Example 4-46, (S)-3-[(R)-1-(3-Chloro-2-fluorophenoxy)butyl]pyrrolidine] | – |
| ≤ 100 nM | ≤ 10 nM | CCC[C@@H](Oc1cccc(Cl)c1F)[C@@H]1CCNC1 [Example 4-47, (R)-3-[(R)-1-(3-Chloro-2-fluorophenoxy)butyl]pyrrolidine] | – |
| ≤ 100 nM | – | Cc1cc(O[C@H](C2CC2)[C@H]2CCNC2)c(Cl)cc1Cl [Example 16-73, (S)-3-[(R)cyclopropyl-(2,4-dichloro-5-methylphenoxy)methyl]pyrrolidine] | Ki (hSERT [3]): ≤ 10 nM; Ki (hNET [4]): ≤ 3160 nM |
| – | – | C#CC(Oc1c(Cl)ccc(Cl)c1Cl)[C@H]1CCNC1 (stereo partly drawn) [Example 26, (S)-3-[1(2,3,6-Trichlorophenoxy)prop-2-ynyl]pyrrolidine] | IC50 (hNET [5]): ≤ 10 nM; IC50 (hSERT [6]): ≤ 100 nM; Ki (hSERT [3]): ≤ 10 nM; Ki (hNET [4]): ≤ 10 nM |
| – | – | C#CC(Oc1cccc(Cl)c1Cl)[C@H]1CCNC1 (stereo partly drawn) [Example 27-1, (S)-3-[1-(2,3-Dichlorophenoxy)prop-2-ynyl]pyrrolidine] | IC50 (hNET [5]): ≤ 10 nM; IC50 (hSERT [6]): ≤ 100 nM; Ki (hSERT [3]): ≤ 10 nM; Ki (hNET [4]): ≤ 10 nM |
